PubChem BioAssay AID1918939 (Molecular Pharmacology Branch, DTP, NCI, 2023)
pIC50: −log10 of the molar value.

Tested on: 653999-131-R-J2-PDC complex spheroid viability
Test: Anticancer human tumor 653999-131-R-J2-PDC patient-derived lung adenocarcinoma cell line growth inhibition
Conditions: for pIC50: curve of first compound; for viability, T/C: stronger effect = lower value
Summary of the method: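 Complex spheroids of tumor cells with HUVEC and human MSCs, exposed to iadademstat combined with other agents. Each agent tested in half-log steps from near clinical Cmax (else 10 microM top), DMSO ≤0.25%.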

[1] = second compound 0.1 µM, first compound 0.000316 µM
[2] = second compound 0.1 µM, first compound 0.001 µM
[3] = second compound 0.1 µM, first compound 0.00316 µM
[4] = second compound 0.1 µM, first compound 0.01 µM
[5] = second compound 0.1 µM, first compound 0.0316 µM
[6] = second compound 0.1 µM, first compound 0.1 µM
[7] = second compound 0.316 µM, first compound 0.000316 µM
[8] = second compound 0.316 µM, first compound 0.001 µM
[9] = second compound 0.316 µM, first compound 0.00316 µM
[10] = second compound 0.316 µM, first compound 0.01 µM
[11] = second compound 0.316 µM, first compound 0.0316 µM
[12] = second compound 0.316 µM, first compound 0.1 µM
[13] = second compound 1 µM, first compound 0.000316 µM
[14] = second compound 1 µM, first compound 0.001 µM
[15] = second compound 1 µM, first compound 0.00316 µM
[16] = second compound 1 µM, first compound 0.01 µM
[17] = second compound 1 µM, first compound 0.0316 µM
[18] = second compound 1 µM, first compound 0.1 µM
[19] = second compound 3.16 µM, first compound 0.000316 µM
[20] = second compound 3.16 µM, first compound 0.001 µM
[21] = second compound 3.16 µM, first compound 0.00316 µM
[22] = second compound 3.16 µM, first compound 0.01 µM
[23] = second compound 3.16 µM, first compound 0.0316 µM
[24] = second compound 3.16 µM, first compound 0.1 µM
[25] = second compound 10 µM, first compound 0.000316 µM
[26] = second compound 10 µM, first compound 0.001 µM
[27] = second compound 10 µM, first compound 0.00316 µM
[28] = second compound 10 µM, first compound 0.01 µM
[29] = second compound 10 µM, first compound 0.0316 µM
[30] = second compound 10 µM, first compound 0.1 µM
[31] = second compound 0.1 µM, first compound 0.00949 µM
[32] = second compound 0.1 µM, first compound 0.03 µM
[33] = second compound 0.1 µM, first compound 0.0949 µM
[34] = second compound 0.1 µM, first compound 0.3 µM
[35] = second compound 0.1 µM, first compound 0.949 µM
[36] = second compound 0.1 µM, first compound 3 µM
[37] = second compound 0.316 µM, first compound 0.00949 µM
[38] = second compound 0.316 µM, first compound 0.03 µM
[39] = second compound 0.316 µM, first compound 0.0949 µM
[40] = second compound 0.316 µM, first compound 0.3 µM
[41] = second compound 0.316 µM, first compound 0.949 µM
[42] = second compound 0.316 µM, first compound 3 µM
[43] = second compound 1 µM, first compound 0.00949 µM
[44] = second compound 1 µM, first compound 0.03 µM
[45] = second compound 1 µM, first compound 0.0949 µM
[46] = second compound 1 µM, first compound 0.3 µM
[47] = second compound 1 µM, first compound 0.949 µM
[48] = second compound 1 µM, first compound 3 µM
[49] = second compound 3.16 µM, first compound 0.00949 µM
[50] = second compound 3.16 µM, first compound 0.03 µM
[51] = second compound 3.16 µM, first compound 0.0949 µM
[52] = second compound 3.16 µM, first compound 0.3 µM
[53] = second compound 3.16 µM, first compound 0.949 µM
[54] = second compound 3.16 µM, first compound 3 µM
[55] = second compound 10 µM, first compound 0.00949 µM
[56] = second compound 10 µM, first compound 0.03 µM
[57] = second compound 10 µM, first compound 0.0949 µM
[58] = second compound 10 µM, first compound 0.3 µM
[59] = second compound 10 µM, first compound 0.949 µM
[60] = second compound 10 µM, first compound 3 µM
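Note: spheroids exposed to agents for seven days before readout.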

For `CC(C)CC(NC(=O)C(Cc1ccccc1)NC(=O)c1cnccn1)B(O)O` (stereo not given) + NC1CC1c1ccc(-c2cccc(O)c2)cc1, the pIC50 (second compound 0.1 µM) was 9.08, the pIC50 (second compound 0.316 µM) was 9.04 and the pIC50 (second compound 1 µM) was 9.10. For the same compound, the pIC50 (second compound 3.16 µM) was 9.01, the pIC50 (second compound 10 µM) was 9.23 and the viability, T/C [1] was 122%. The viability, T/C [2] was 35.4%, the viability, T/C [3] was 12.9% and the viability, T/C [4] was 4.58%. The viability, T/C [5] was 1.38%, the viability, T/C [6] was 2.17% and the viability, T/C [7] was 110%. It also gave a viability, T/C [8] of 44.2%, a viability, T/C [9] of 11.4% and a viability, T/C [10] of 3.25%. It also gave a viability, T/C [11] of 1.54%, a viability, T/C [12] of 1.44% and a viability, T/C [13] of 109%. It also gave a viability, T/C [14] of 34%, a viability, T/C [15] of 11.6% and a viability, T/C [16] of 3.96%. It also gave a viability, T/C [17] of 0.99%, a viability, T/C [18] of 4.31% and a viability, T/C [19] of 103%. The viability, T/C [20] was 48.9%, the viability, T/C [21] was 16% and the viability, T/C [22] was 3.4%. The viability, T/C [23] was 1.41%, the viability, T/C [24] was 2.37% and the viability, T/C [25] was 74.4%. It also gave a viability, T/C [26] of 29.1%, a viability, T/C [27] of 9.61% and a viability, T/C [28] of 3.68%. It also gave a viability, T/C [29] of 1.33% and a viability, T/C [30] of 2.12%.
Compound `CC(C)CC(NC(=O)CNC(=O)c1cc(Cl)ccc1Cl)B1OC(=O)CC(CC(=O)O)(C(=O)O)O1` (stereo not given) + NC1CC1c1ccc(-c2cccc(O)c2)cc1 has a pIC50 (second compound 0.1 µM) of 7.68, a pIC50 (second compound 0.316 µM) of 7.82 and a pIC50 (second compound 1 µM) of 7.78. It also gave a pIC50 (second compound 3.16 µM) of 7.83, a pIC50 (second compound 10 µM) of 8.03 and a viability, T/C [1] of 88.6%. For the same compound, the viability, T/C [2] was 103%, the viability, T/C [3] was 109% and the viability, T/C [4] was 73%. It also gave a viability, T/C [5] of 38.5%, a viability, T/C [6] of 19.6% and a viability, T/C [7] of 97.4%. For the same compound, the viability, T/C [8] was 91.7%, the viability, T/C [9] was 117% and the viability, T/C [10] was 62.3%. The viability, T/C [11] was 38.2%, the viability, T/C [12] was 17.5% and the viability, T/C [13] was 77.9%. It also gave a viability, T/C [14] of 87%, a viability, T/C [15] of 123% and a viability, T/C [16] of 68.2%. The viability, T/C [17] was 33%, the viability, T/C [18] was 20.4% and the viability, T/C [19] was 92.8%. The viability, T/C [20] was 90.8%, the viability, T/C [21] was 116% and the viability, T/C [22] was 61.7%. For the same compound, the viability, T/C [23] was 38.7%, the viability, T/C [24] was 14.7% and the viability, T/C [25] was 80%. The viability, T/C [26] was 84.6%, the viability, T/C [27] was 113% and the viability, T/C [28] was 47.3%. The viability, T/C [29] was 23.9% and the viability, T/C [30] was 9.99%.
Compound `Nc1ccccc1NC(=O)c1ccc(CNC(=O)OCc2cccnc2)cc1` + NC1CC1c1ccc(-c2cccc(O)c2)cc1 has a pIC50 (second compound 0.1 µM) of 6.45, a pIC50 (second compound 0.316 µM) of 6.61 and a pIC50 (second compound 1 µM) of 6.53. The pIC50 (second compound 3.16 µM) was 6.67, the pIC50 (second compound 10 µM) was 6.75 and the viability, T/C [31] was 89%. It also gave a viability, T/C [32] of 101%, a viability, T/C [33] of 81.5% and a viability, T/C [34] of 52.9%. It also gave a viability, T/C [35] of 22.6%, a viability, T/C [36] of 1.35% and a viability, T/C [37] of 93%. It also gave a viability, T/C [38] of 85.8%, a viability, T/C [39] of 64.3% and a viability, T/C [40] of 49.5%. The viability, T/C [41] was 20.4%, the viability, T/C [42] was 1.41% and the viability, T/C [43] was 81.2%. It also gave a viability, T/C [44] of 68.5%, a viability, T/C [45] of 77.9% and a viability, T/C [46] of 48%. For the same compound, the viability, T/C [47] was 13.1%, the viability, T/C [48] was 0.97% and the viability, T/C [49] was 84.6%. It also gave a viability, T/C [50] of 74.4%, a viability, T/C [51] of 69.4% and a viability, T/C [52] of 42.1%. The viability, T/C [53] was 15.8%, the viability, T/C [54] was 1.74% and the viability, T/C [55] was 76.1%. It also gave a viability, T/C [56] of 82.2%, a viability, T/C [57] of 57.1% and a viability, T/C [58] of 42.3%. For the same compound, the viability, T/C [59] was 13.3% and the viability, T/C [60] was 0.95%.
Work on `O=C(C=Cc1cccc(S(=O)(=O)Nc2ccccc2)c1)NO` + NC1CC1c1ccc(-c2cccc(O)c2)cc1 yielded a pIC50 (second compound 0.1 µM) of under 5.52, a pIC50 (second compound 0.316 µM) of 6.53 and a pIC50 (second compound 1 µM) of 6.53. The pIC50 (second compound 3.16 µM) was 6.53, the pIC50 (second compound 10 µM) was 6.58 and the viability, T/C [31] was 99.8%. It also gave a viability, T/C [32] of 109%, a viability, T/C [33] of 88.8% and a viability, T/C [34] of 48.7%. It also gave a viability, T/C [35] of 8.83%, a viability, T/C [36] of 99.3% and a viability, T/C [37] of 92.8%. It also gave a viability, T/C [38] of 99%, a viability, T/C [39] of 87.9% and a viability, T/C [40] of 45.2%. The viability, T/C [41] was 9.89%, the viability, T/C [42] was 93.6% and the viability, T/C [43] was 78.8%. The viability, T/C [44] was 94.4%, the viability, T/C [45] was 92.4% and the viability, T/C [46] was 49.1%. For the same compound, the viability, T/C [47] was 8.18%, the viability, T/C [48] was 89% and the viability, T/C [49] was 88.2%. For the same compound, the viability, T/C [50] was 101%, the viability, T/C [51] was 89.8% and the viability, T/C [52] was 45.8%. It also gave a viability, T/C [53] of 7.35%, a viability, T/C [54] of 94.9% and a viability, T/C [55] of 83.5%. The viability, T/C [56] was 88.6%, the viability, T/C [57] was 83.3% and the viability, T/C [58] was 46%. The viability, T/C [59] was 9.36% and the viability, T/C [60] was 82.4%.
